Experimental data reported in patent publication US20260125359A1, “HETEROARYL COMPOUNDS AS MULTI-TARGET PROTEIN KINASE INHIBITORS” (FUJIAN HAIXI PHARMACEUTICALS CO., LTD., priority 2023, published 2026).

Columns and labels:
[1] = biological target: PDGFR-α (Homo sapiens, UniProt P16234); experiment: PDGFR-α in vitro kinase activity assay (HTRF kinEASE TK); type: biochemical; conditions: for inhibition at 0.01 µM: compound 10 nM, read-out: PDGFRα inhibition rate, 10 nM; for inhibition at 0.1 µM: compound 100 nM, read-out: PDGFRα inhibition rate, 100 nM
Sequence of PDGFR-α (P16234 24-1089): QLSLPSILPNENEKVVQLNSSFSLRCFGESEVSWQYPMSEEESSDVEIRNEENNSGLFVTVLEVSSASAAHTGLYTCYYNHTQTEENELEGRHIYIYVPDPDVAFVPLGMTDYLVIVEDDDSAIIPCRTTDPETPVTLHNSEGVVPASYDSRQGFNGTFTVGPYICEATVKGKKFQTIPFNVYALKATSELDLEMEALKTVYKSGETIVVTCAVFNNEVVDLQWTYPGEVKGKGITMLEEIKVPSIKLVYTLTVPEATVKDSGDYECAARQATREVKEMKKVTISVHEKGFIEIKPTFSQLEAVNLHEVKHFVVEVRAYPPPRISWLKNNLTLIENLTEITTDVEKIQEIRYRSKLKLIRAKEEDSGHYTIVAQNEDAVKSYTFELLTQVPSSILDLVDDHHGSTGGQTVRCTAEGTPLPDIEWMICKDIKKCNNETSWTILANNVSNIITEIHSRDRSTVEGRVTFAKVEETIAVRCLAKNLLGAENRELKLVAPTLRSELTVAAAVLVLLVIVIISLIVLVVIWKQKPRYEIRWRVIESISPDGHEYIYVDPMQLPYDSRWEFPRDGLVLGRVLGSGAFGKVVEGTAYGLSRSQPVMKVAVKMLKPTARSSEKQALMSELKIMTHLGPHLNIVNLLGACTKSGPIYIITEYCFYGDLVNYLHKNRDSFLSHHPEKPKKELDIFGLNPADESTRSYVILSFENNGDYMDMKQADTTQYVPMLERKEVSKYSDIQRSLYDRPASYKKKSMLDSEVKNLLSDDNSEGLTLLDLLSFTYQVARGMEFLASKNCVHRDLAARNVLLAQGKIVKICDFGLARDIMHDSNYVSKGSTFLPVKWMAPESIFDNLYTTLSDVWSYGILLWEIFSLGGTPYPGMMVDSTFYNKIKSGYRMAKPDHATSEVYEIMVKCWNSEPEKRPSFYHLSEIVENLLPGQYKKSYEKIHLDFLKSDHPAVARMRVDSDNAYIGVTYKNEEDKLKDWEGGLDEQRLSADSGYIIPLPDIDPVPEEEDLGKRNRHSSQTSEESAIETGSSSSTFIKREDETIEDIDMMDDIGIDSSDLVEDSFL
From the text: CSF-1R, PDGFR-α, KDR (VEGFR2) and KIT in vitro Kinase Activity Assay:
• ENVISION (Perkinelmer, 2104) • White 384-well MicroPlate (Cat #264706, Nunc) • HTRF kinEASE TK kit main reagents (Cat #62TKOPEC, Cisbio) • TK-biotin substrate • Streptavidin-XL665 • TK Antibody-Cryptate • 5× Enzymatic buffer (5×KB) • Staphylococcal enterotoxin B (SEB) • HTRF Detection buffer • CSF-1R (Cat #PV3249, Invitrogen) • PDGFR-α (Cat #PV3811, Invitrogen) • KDR (Cat #PV3660, Invitrogen) • KIT (Cat #08-156, Carna) • ATP 10 mM (Cat #PV3227, Invitrogen) • DTT 1 M (Cat #D5545, Sigma) • MgCl2 1 M (Cat #M8266, Sigma) • MnCl2 1 M (Cat #244589, Sigma)
Dilute Substrate-TK and ATP to 5× of the reaction concentration using 1× Kinase Buffer.
Prepare the 5× enzyme working solution using 1× Kinase Buffer.
Prepare the 4×Sa-XL665 working solution using Detection Buffer.
Dilute TK-Ab-Cryptate 100 times using Detection Buffer to prepare the working solution.
After all reagents were prepared according to the methods described above, except for the enzyme, they were equilibrated to room temperature before starting the sample addition. • a) First, 2.5% DMSO solutions were prepared separately using the pre-prepared 1× kinase buffer (DMSO concentrations that were too high could affect the reaction, so the final concentration of DMSO was controlled at 1%). Then, the corresponding 2.5% DMSO solution for the enzyme was used to dilute the test compounds. Compounds were screened with two concentrations of 100 nM and 10 nM. Except for the control wells, 4 μL of the diluted test compound solution was added to the reaction wells, and 4 μL of the pre-prepared 2.5% DMSO solution was added to the control wells. • b) 2 μL of the pre-prepared TK-biotin substrate solution at the corresponding concentration for the kinase was added to all reaction wells. • c) 2 μL of the pre-prepared enzyme solution at the corresponding concentration was added to all reaction wells except the negative control wells. For the negative control wells, 2 μL of 1× kinase buffer corresponding to the enzyme was added to make up the volume. The plate was sealed with sealing film, mixed gently, and incubated at room temperature for 10 min to allow the compounds to fully interact with the enzyme. • d) 2 μL of the ATP solution at the corresponding concentration for the enzyme was added to all reaction wells to initiate the kinase reaction. ATP concentrations and reaction times for enzyme screening are shown in Table 26 • e) Five minutes before the end of the kinase reaction, the detection solution was prepared. The detection buffer from the kit was used to prepare detection solutions for Streptavidin-XL665 and TK antibody europium cryptate (1:100) at the appropriate concentrations for the two enzymes. • f) After the kinase reaction was completed, 5 μL of the diluted Streptavidin-XL665 solution was added to all reaction wells. After mixing, the diluted TK antibody europium cryptate detection solution was immediately added. • g) The plate was sealed and mixed, incubated at room temperature for 1 hour, and the fluorescence signal was detected using the ENVISION (PerkinElmer) instrument (excitation at 320 nm, emission at 665 nm and 615 nm). The inhibition rate for each well was calculated based on the full-activity control wells and background signal wells, and the average value of the replicates was taken.

[2] = biological target: DDR1 (Homo sapiens, UniProt Q08345); experiment: DDR1 in vitro kinase activity assay (LanthaScreen Eu-anti-GST antibody / Kinase Tracer 178); type: binding; conditions: for inhibition at 0.01 µM: compound 10 nM, read-out: DDR1 inhibition rate, 10 nM; for inhibition at 0.1 µM: compound 100 nM, read-out: DDR1 inhibition rate, 100 nM
Sequence of DDR1 (Q08345 19-913): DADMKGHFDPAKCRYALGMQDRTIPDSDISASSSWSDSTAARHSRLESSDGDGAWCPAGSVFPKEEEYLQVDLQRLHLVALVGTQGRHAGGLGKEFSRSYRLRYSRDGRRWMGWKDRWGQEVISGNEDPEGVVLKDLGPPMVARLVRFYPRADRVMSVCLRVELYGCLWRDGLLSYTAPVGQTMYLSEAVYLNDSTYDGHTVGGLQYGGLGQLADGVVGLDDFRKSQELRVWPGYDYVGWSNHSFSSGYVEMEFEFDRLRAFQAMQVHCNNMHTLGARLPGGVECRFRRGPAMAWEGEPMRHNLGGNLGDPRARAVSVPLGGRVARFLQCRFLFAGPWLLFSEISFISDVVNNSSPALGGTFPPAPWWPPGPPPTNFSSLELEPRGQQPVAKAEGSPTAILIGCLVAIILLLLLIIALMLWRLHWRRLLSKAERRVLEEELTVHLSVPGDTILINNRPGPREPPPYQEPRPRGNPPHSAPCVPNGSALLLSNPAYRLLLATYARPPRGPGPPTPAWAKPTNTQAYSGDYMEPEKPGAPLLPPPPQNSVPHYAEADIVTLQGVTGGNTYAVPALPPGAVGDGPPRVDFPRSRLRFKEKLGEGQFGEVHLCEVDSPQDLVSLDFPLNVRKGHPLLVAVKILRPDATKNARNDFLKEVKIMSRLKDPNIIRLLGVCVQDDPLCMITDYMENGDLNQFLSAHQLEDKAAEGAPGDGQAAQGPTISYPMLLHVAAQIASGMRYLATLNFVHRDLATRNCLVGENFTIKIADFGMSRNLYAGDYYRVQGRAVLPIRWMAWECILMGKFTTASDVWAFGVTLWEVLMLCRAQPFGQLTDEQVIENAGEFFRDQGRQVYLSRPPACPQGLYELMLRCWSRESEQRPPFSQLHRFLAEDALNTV
Protocol: DDR1 in vitro Kinase Activity Assay:
• ENVISION (Perkinelmer, 2104) • White 384-well MicroPlate (Cat #264706, Nunc) • DDR1 (Cat #PV6047, Invitrogen) • 5× Kinase Buffer A (Cat #PV3189, Invitrogen) • Kinase Tracer 178 (Cat #PV5593, Invitrogen) • LanthaScreen® Eu-anti-GST Antibody (Cat #PV5594, Invitrogen)
The compounds to be tested were tested at two concentrations of 100 nM and 10 nM.
Kinase/Antibody Mixtures Preparation: Dilute Kinase/Antibody Mixtures with 1× Kinase Buffer to form 3× working solutions with final concentrations of 5 nM kinase and 2 nM Eu-Anti-GST Antibody, respectively.
Kinase Tracer 178 Preparation: Dilute Kinase Tracer 178 with 1× Kinase Buffer to make a 3× working solution with a final concentration of 10 nM.
After all reagents were prepared according to the methods described above, except for the enzyme, they were equilibrated to room temperature before starting the sample addition. • a) First, 3% DMSO solutions were prepared separately using the pre-prepared 1× kinase buffer (DMSO concentrations that were too high could affect the reaction, so the final concentration of DMSO was controlled at 1%). Then, the corresponding 3% DMSO solution for the enzyme was used to dilute the test compounds. Compounds were screened with two concentrations of 100 nM and 10 nM. Except for the control wells, 5 μL of the diluted test compound solution was added to the reaction wells, and 5 μL of the pre-prepared 3% DMSO solution was added to the control wells. • b) 5 μL of the pre-prepared Kinase/Antibody mixtures was added to all reaction wells except the negative control wells. For the negative control wells, 5 μL of 1× kinase buffer corresponding to the enzyme was added to make up the volume. • c) 5 μL of the pre-prepared Kinase Tracer 178 solution was added to all reaction wells. • d) The plate was sealed and mixed, incubated at room temperature for 1 hour, and the fluorescence signal was detected using the ENVISION (PerkinElmer) instrument (excitation at 340 nm, emission at 665 nm and 615 nm). The inhibition rate for each well was calculated based on the full-activity control wells and background signal wells, and the average value of the replicates was taken.

Structure (SMILES)	inhibition at 0.01 µM [1] [%]	inhibition at 0.1 µM [1] [%]	inhibition at 0.01 µM [2] [%]	inhibition at 0.1 µM [2] [%]
Cn1ncc2ncc(N[C@H]3CCc4c(C(=O)Nc5cccc(C6CC6)c5)cccc43)cc21 [Compound 73, (S)—N-(3-cyclopropylphenyl)-1-((1-methyl-1H-pyrazolo[4,3-b]pyridin-6-yl)amino)-2,3-dihydro-1H-indene-4-carboxamide]	90	100	72.5	103
Cn1cc2ncc(N[C@H]3CCc4c(C(=O)Nc5nc(C6CC6)cs5)cccc43)cc2n1 [Compound 74h, (S)—N-(4-cyclopropylthiazol-2-yl)-1-((2-methyl-2H-pyrazolo[4,3-b]pyridin-6-yl)amino)-2,3-dihydro-1H-indene-4-carboxamide]	29.3	94.8	57.2	99.9
Cn1ncc2ncc(O[C@H]3CCc4c(C(=O)Nc5cncc(Cl)c5)cccc43)cc21 [Compound 76ac, (S)—N-(5-chloropyridin-3-yl)-1-((1-methyl-1H-pyrazolo[4,3-b]pyridin-6-yl)oxy)-2,3-dihydro-1H-indene-4-carboxamide]	13.7	53.1	72.5	103
Cn1cc2ncc(O[C@H]3CCc4c(C(=O)Nc5cncc(Cl)c5)cccc43)cc2n1 [Compound 76ai]	37.8	89.3	94.2	99.6
Cn1cc2ncc(O[C@H]3CCc4c(C(=O)Nc5nn(C)c6ccccc56)cccc43)cc2n1 [Compound 76al]	97.6	97.2	98	98.5
Cn1cc2ncc(O[C@H]3CCc4c(C(=O)Nc5nn(C)c6cccc(F)c56)cccc43)cc2n1 [Compound 76aw]	88.5	102	64	93.6
Cc1cccc(NC(=O)c2cccc3c2CC[C@@H]3Oc2cnc3cn(C)nc3c2)n1 [Compound 76bd]	32	85.7	21.2	69.7
CN(c1cnc2cn(C)nc2c1)[C@H]1CCc2c(C(=O)Nc3cncc(Cl)c3)cccc21 [Compound 80k]	19	51.2	14.7	83.9
CN(c1cnc2cn(C)nc2c1)[C@H]1CCc2c(C(=O)Nc3nn(C)c4ccccc34)cccc21 [Compound 80l]	69.1	96.9	75.1	97.9
Cn1ncc2ncc(N[C@H]3CCc4c(Nc5cc(C(C)(C)C)on5)cccc43)nc21 [Compound 86, (S)—N^4-(5-(tert-butyl)isoxazol-3-yl)-N1-(1-methyl-1H-pyrazolo[3,4-b]pyrazin-6-yl)-2,3-dihydro-1H-indene-1,4-diamine]	26.8	96.5	20	98.4
